Patent US20240425479A1, “HALO-SUBSTITUTED AMINO AZA-HETEROARYL COMPOUNDS AS INHIBITORS OF THE HAEMATOPOIETIC PROGENITOR KINASE 1 (HPK1)” (priority 2021, published 2024)

Target: T1, Recombinant (1-346) HPK1 (h) (Homo sapiens, UniProt Q92918)
T1 construct: Recombinant (1-346) HPK1 (h) is incubated with 8 mM MOPS pH 7.0
T1 sequence (Q92918 1-346): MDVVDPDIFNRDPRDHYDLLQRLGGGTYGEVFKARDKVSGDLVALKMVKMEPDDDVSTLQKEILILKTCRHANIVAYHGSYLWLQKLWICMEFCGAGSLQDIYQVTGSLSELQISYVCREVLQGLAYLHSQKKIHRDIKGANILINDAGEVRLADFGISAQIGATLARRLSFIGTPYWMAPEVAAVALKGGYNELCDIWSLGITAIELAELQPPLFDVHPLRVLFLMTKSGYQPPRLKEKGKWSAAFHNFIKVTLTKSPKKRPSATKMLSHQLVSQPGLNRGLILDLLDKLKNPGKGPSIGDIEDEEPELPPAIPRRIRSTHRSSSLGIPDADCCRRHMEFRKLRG
Assay: HPK1 human STE kinase enzymatic radiometric assay
Assay type: biochemical
Details: read-out: HPK1 IC50 nM Range
Procedure, shortened: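 Recombinant HPK1 (1-346) incubated 40 min at RT with 0.33 mg/mL myelin basic protein and [gamma-33P]-ATP in 8 mM MOPS pH 7.0, 0.2 mM EDTA, 10 mM Mg acetate; reaction started with Mg/ATP. Stopped with 0.5% phosphoric acid, spotted on P30 filtermat, washed, scintillation counted. Compounds tested as 9-point 3-fold dilutions.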

Structure (SMILES)	IC50
Nc1nc(F)c(-c2ccc(N3CCOCC3)cn2)nc1-c1ccc2c(c1)CCNC2=O [Example I-201, 6-(3-amino-5-fluoro-6-(5-morpholinopyridin-2-yl)pyrazin-2-yl)-3,4-dihydroisoquinolin-1(2H)-one]	11 to 100 nM
Cc1c[nH]c(=O)c2ccc(-c3nc(-c4ccc(O)c(CN(C)C)c4)c(F)nc3N)cc12 [Example I-306, 6-(3-amino-6-(3-((dimethylamino)methyl)-4-hydroxyphenyl)-5-fluoropyrazin-2-yl)-4-methylisoquinolin-1(2H)-one]	11 to 100 nM
Nc1nc(F)c(-c2ccc(N3CCOCC3)c(CN3CCC3)c2F)nc1-c1cc(F)c2c(c1)CCNC2=O [Example I-245, 6-(3-amino-6-(3-(azetidin-1-ylmethyl)-2-fluoro-4-morpholinophenyl)-5-fluoropyrazin-2-yl)-8-fluoro-3,4-dihydroisoquinolin-1(2H)-one]	11 to 100 nM
Nc1nc(F)c(-c2ccc(N3CCOCC3)c(CN3CCC3)c2F)nc1-c1cc2c(cc1F)C(=O)NCC2 [Example I-244, 6-(3-amino-6-(3-(azetidin-1-ylmethyl)-2-fluoro-4-morpholinophenyl)-5-fluoropyrazin-2-yl)-7-fluoro-3,4-dihydroisoquinolin-1(2H)-one]	11 to 100 nM
CN(C)Cc1cc(-c2nc(-c3ccc4c(c3)CCNC4=O)c(N)nc2F)c(F)c(F)c1N1CCOCC1 [Example I-262, 6-(3-amino-6-(5-((dimethylamino)methyl)-2,3-difluoro-4-morpholinophenyl)-5-fluoropyrazin-2-yl)-3,4-dihydroisoquinolin-1(2H)-one]	101 to 1000 nM
Nc1nc(F)c(-c2ccc(OC3CCOCC3)c(CN3CCC3)c2)nc1-c1cc2c(cc1F)C(=O)NCC2 [Example I-209, 6-(3-amino-6-(3-(azetidin-1-ylmethyl)-4-((tetrahydro-2H-pyran-4-yl)oxy)phenyl)-5-fluoropyrazin-2-yl)-7-fluoro-3,4-dihydroisoquinolin-1(2H)-one]	11 to 100 nM
Nc1nc(F)c(-c2ccc(N3CCOCC3)c(CN3CCCCC3)c2)nc1-c1cc2c(cc1F)C(=O)NCC2 [Example I-186, 6-(3-amino-5-fluoro-6-(4-morpholino-3-(piperidin-1-ylmethyl)phenyl)pyrazin-2-yl)-7-fluoro-3,4-dihydroisoquinolin-1(2H)-one]	11 to 100 nM
CN(C)Cc1cc(-c2nc(-c3cc(F)c4c(c3)CCNC4=O)c(N)nc2F)ccc1N1CCOCC1 [Example I-88, 6-(3-amino-6-(3-((dimethylamino)methyl)-4-morpholinophenyl)-5-fluoropyrazin-2-yl)-8-fluoro-3,4-dihydroisoquinolin-1(2H)-one]	11 to 100 nM
CN1CC2(CCN(c3ccc(-c4nc(-c5cc6c(cc5F)C(=O)NCC6)c(N)nc4F)cc3)CC2)C1 [Example I-61, 6-(3-amino-5-fluoro-6-(4-(2-methyl-2,7-diazaspiro[3.5]nonan-7-yl)phenyl)pyrazin-2-yl)-7-fluoro-3,4-dihydroisoquinolin-1(2H)-one]	0.1 to 10 nM
CN(C)Cc1c(N2CCOCC2)ccc(-c2nc(-c3cc(F)c4c(c3)CCNC4=O)c(N)nc2F)c1F [Example I-242, 6-(3-amino-6-(3-((dimethylamino)methyl)-2-fluoro-4-morpholinophenyl)-5-fluoropyrazin-2-yl)-8-fluoro-3,4-dihydroisoquinolin-1(2H)-one]	11 to 100 nM
Cc1nc2cc(-c3nc(-c4ccc([C@]56C[C@H]5CN(C)C6)cc4)c(F)nc3N)ccc2c(=O)[nH]1 [Example I-74, 7-(3-amino-5-fluoro-6-(4-((1S,5R)-3-methyl-3-azabicyclo[3.1.0]hexan-1-yl)phenyl)pyrazin-2-yl)-2-methylquinazolin-4(3H)-one]	11 to 100 nM
CN(C)Cc1cc(-c2nc(-c3cc4c(cc3F)C(=O)NCC4)c(N)nc2F)ccc1N1CCSCC1 [Example I-129, 6-(3-amino-6-(3-((dimethylamino)methyl)-4-thiomorpholinophenyl)-5-fluoropyrazin-2-yl)-7-fluoro-3,4-dihydroisoquinolin-1(2H)-one]	0.1 to 10 nM
C[C@@H]1CN(c2ccc(-c3nc(-c4ccc5c(=O)[nH]cc(F)c5c4)c(N)nc3F)cc2)C[C@H](C)N1C [Example I-93, 6-(3-amino-5-fluoro-6-(4-((3R,5S)-3,4,5-trimethylpiperazin-1-yl)phenyl)pyrazin-2-yl)-4-fluoroisoquinolin-1(2H)-one]	0.1 to 10 nM
Cc1nc2cc(-c3nc(-c4ccc(N5CCN(C(C)C)CC5)cc4)c(F)nc3N)c(F)cc2c(=O)[nH]1 [Example I-63, 7-(3-amino-5-fluoro-6-(4-(4-isopropylpiperazin-1-yl)phenyl)pyrazin-2-yl)-6-fluoro-2-methylquinazolin-4(3H)-one]	0.1 to 10 nM
CC(C)(N)c1cc(-c2nc(-c3ccc4c(c3)CCNC4=O)c(N)nc2F)ccc1F [Example I-271, 6-(3-amino-6-(3-(2-aminopropan-2-yl)-4-fluorophenyl)-5-fluoropyrazin-2-yl)-3,4-dihydroisoquinolin-1(2H)-one]	101 to 1000 nM
CN(C)Cc1cc(-c2nc(-c3cc(F)c4c(=O)[nH]cc(F)c4c3)c(N)nc2F)ccc1N1CCOCC1 [Example I-120, 6-(3-amino-6-(3-((dimethylamino)methyl)-4-morpholinophenyl)-5-fluoropyrazin-2-yl)-4,8-difluoroisoquinolin-1(2H)-one]	0.1 to 10 nM
C[C@@H]1CCCN1Cc1cc(-c2nc(-c3ccc4c(=O)[nH]cc(F)c4c3)c(N)nc2F)ccc1C1CCOCC1 [Example I-226, (R)-6-(3-amino-5-fluoro-6-(3-((2-tmethylpyrrolidin-1-yl)methyl)-4-(tetrahydro-2H-pyran-4-yl)phenyl)pyrazin-2-yl)-4-fluoroisoquinolin-1(2H)-one]	0.1 to 10 nM

The next lines start with the values.

IC50	Structure (SMILES)
0.1 to 10 nM	CN(C)Cc1cc(-c2nc(-c3ccc4c(c3)C3(CC3)CNC4=O)c(N)nc2F)ccc1N1CCOCC1 [Example I-105, 6′-(3-amino-6-(3-((dimethylamino)methyl)-4-morpholinophenyl)-5-fluoropyrazin-2-yl)-2′,3′-dihydro-1′H-spiro[cyclopropane-1,4′-isoquinolin]-1′-one]
0.1 to 10 nM	Cc1c[nH]c(=O)c2c(F)cc(-c3nc(-c4ccc(N5CCN(C(C)C)CC5)cc4)c(F)nc3N)cc12 [Example I-166, 6-(3-amino-5-fluoro-6-(4-(4-isopropylpiperazin-1-yl)phenyl)pyrazin-2-yl)-8-fluoro-4-methylisoquinolin-1(2H)-one]
0.1 to 10 nM	Nc1nc(F)c(-c2ccc(C3CCOCC3)c([C@@H]3CCCN3)c2)nc1-c1cc2c(cc1F)C(=O)NCC2 [Example I-19, (S)-6-(3-amino-5-fluoro-6-(3-(pyrrolidin-2-yl)-4-(tetrahydro-2H-pyran-4-yl)phenyl)pyrazin-2-yl)-7-fluoro-3,4-dihydroisoquinolin-1(2H)-one]
0.1 to 10 nM	CCN1CCN(c2ccc(-c3nc(-c4ccc5c(c4)CCNC5=O)c(N)nc3F)cc2)CC1 [Example I-55, 6-(3-amino-6-(4-(4-ethylpiperazin-1-yl)phenyl)-5-fluoropyrazin-2-yl)-3,4-dihydroisoquinolin-1(2H)-one]
0.1 to 10 nM	Nc1nc(F)c(-c2ccc(N3CCN(C4COC4)CC3)cc2)nc1-c1ccc2c(c1)CCNC2=O [Example I-46, 6-(3-amino-5-fluoro-6-(4-(4-(oxetan-3-yl)piperazin-1-yl)phenyl)pyrazin-2-yl)-3,4-dihydroisoquinolin-1(2H)-one]
0.1 to 10 nM	Cc1c[nH]c(=O)c2ccc(-c3nc(-c4cc(F)c(N5CCOCC5)c(CN(C)C)c4)c(F)nc3N)cc12 [Example I-266, 6-(3-amino-6-(3-((dimethylamino)methyl)-5-fluoro-4-morpholinophenyl)-5-fluoropyrazin-2-yl)-4-methylisoquinolin-1(2H)-one]
0.1 to 10 nM	Cc1c[nH]c(=O)c2cc(F)c(-c3nc(-c4ccc(C5CCOCC5)c(CN(C)C)c4)c(F)nc3N)cc12 [Example I-235, 6-(3-amino-6-(3-((dimethylamino)methyl)-4-(tetrahydro-2H-pyran-4-yl)phenyl)-5-fluoropyrazin-2-yl)-7-fluoro-4-methylisoquinolin-1(2H)-one]
0.1 to 10 nM	CN(C)Cc1cc(-c2nc(-c3ccc4c(=O)[nH]cc(F)c4c3)c(N)nc2F)cc2c1OCCC2 [Example I-268, 6-(3-amino-6-(8-((dimethylamino)methyl)chroman-6-yl)-5-fluoropyrazin-2-yl)-4-fluoroisoquinolin-1(2H)-one]
0.1 to 10 nM	Cc1cc2cc(-c3nc(-c4ccc(C5CCOCC5)c(CN(C)C)c4)c(F)nc3N)c(F)cc2c(=O)[nH]1 [Example I-184, 6-(3-amino-6-(3-((dimethylamino)methyl)-4-(tetrahydro-2H-pyran-4-yl)phenyl)-5-fluoropyrazin-2-yl)-7-fluoro-3-methylisoquinolin-1(2H)-one]
0.1 to 10 nM	C[C@@H]1CN(c2ccc(-c3nc(-c4cc(F)c5c(c4)CCNC5=O)c(N)nc3F)cc2CN(C)C)CCO1 [Example I-177, (R)-6-(3-amino-6-(3-((dimethylamino)methyl)-4-(2-methylmorpholino)phenyl)-5-fluoropyrazin-2-yl)-8-fluoro-3,4-dihydroisoquinolin-1(2H)-one]
0.1 to 10 nM	C[C@H]1CCCN1Cc1cc(-c2nc(-c3ccc4c(=O)[nH]cc(F)c4c3)c(N)nc2F)ccc1C1CCOCC1 [Example I-228, (S)-6-(3-amino-5-fluoro-6-(3-((2-methylpyrrolidin-1-yl)methyl)-4-(tetrahydro-2H-pyran-4-yl)phenyl)pyrazin-2-yl)-4-fluoroisoquinolin-1(2H)-one]
